Measured values taken from ChEMBL document CHEMBL4177750, “Imidazopyrazinones (IPYs): Non-Quinolone Bacterial Topoisomerase Inhibitors Showing Partial Cross-Resistance with Quinolones” (J Med Chem, 2018).
Converted amounts (≈) assume the structure as drawn. The source made the active and inactive calls. No cut-off for these calls is given here.

Key:
Pseudomonas aeruginosa [1] = assay: Antibacterial activity against Pseudomonas aeruginosa PAO1 after 20 to 22 hrs; type: functional
Staphylococcus aureus [2] = assay: Antibacterial activity against methicillin-resistant Staphylococcus aureus ATCC 33592 after 20 to 22 hrs; type: functional
Escherichia coli [3] = assay: Antibacterial activity against ESBL producing Escherichia coli ATCC 35218 after 20 to 22 hrs; type: functional
Pseudomonas aeruginosa [4] = assay: Antibacterial activity against Pseudomonas aeruginosa PAO750 harboring mexAB-oprM/mexCD-oprJ/mexEF-oprN/mexXY/opmH/mexJK/pscC deletion mutant after 20 to 22 hrs; type: functional
Escherichia coli [5] = assay: Antibacterial activity against hyperpermeable Escherichia coli D22 harboring LpxC mutant after 20 to 22 hrs
Escherichia coli [6] = assay: Antibacterial activity against tolC-deficient Escherichia coli K-12 MG1655 after 20 to 22 hrs; type: functional; conditions: K-12 substr. MG1655
Escherichia coli [7] = assay: Antibacterial activity against Escherichia coli K-12 MG1655 after 20 to 22 hrs; conditions: K-12 substr. MG1655
Escherichia coli [8] = assay: Antibacterial activity against tolC-deficient fluoroquinolones-resistant Escherichia coli W4753 clinical isolate harboring DNA gyrase S83L/D87N/ParC S80I/ParE S458A mutant after 20 to 22 hrs
Escherichia coli [9] = assay: Antibacterial activity against tolC-deficient fluoroquinolones-sensitive Escherichia coli JC7623 clinical isolate harboring wild type DNA gyrase after 20 to 22 hrs
DNA gyrase = DNA gyrase (Escherichia coli, UniProt P0AES4+P0AES6)
Description: Inhibition of Escherichia coli DNA gyrase A2B2 using relaxed pNO1 as substrate

Staphylococcus aureus [10] = assay: Antibacterial activity against methicillin-resistant Staphylococcus aureus ATCC 33592 after 20 to 22 hrs in presence of 50% calf fetal serum; type: functional, organism-based
Staphylococcus aureus [11] = assay: Antibacterial activity against methicillin-resistant Staphylococcus aureus ATCC 33592 after 20 to 22 hrs in presence of 50% mouse serum; type: functional, organism-based

Row | SMILES | MIC (Pseudomonas aeruginosa [1]) | MIC (Staphylococcus aureus [2]) | MIC (Escherichia coli [3]) | MIC (Pseudomonas aeruginosa [4]) | MIC (Escherichia coli [5]) | MIC (Escherichia coli [6]) | MIC (Escherichia coli [7]) | MIC (Escherichia coli [8]) | MIC (Escherichia coli [9]) | IC50 (DNA gyrase) | Activity (Staphylococcus aureus [10]) | Activity (Staphylococcus aureus [11])
1 | O=c1c2cncn2c2cc(F)c(-c3ccncc3)cc2n1C1CC1 | > 64 µg/mL | 64 µg/mL (≈ 200 µM) | 64 µg/mL (≈ 200 µM) | 32 µg/mL (≈ 99.9 µM) | 64 µg/mL (≈ 200 µM) | 0.25 µg/mL (≈ 0.78 µM) | > 64 µg/mL |  |  |  |  | 
2 | O=c1c2nccn2c2cc(F)c(-c3cccnc3)cc2n1C1CC1 | > 64 µg/mL | 64 µg/mL (≈ 200 µM) | 16 µg/mL (≈ 49.9 µM) | 4 µg/mL (≈ 12.5 µM) | 8 µg/mL (≈ 25 µM) | < 0.125 µg/mL | 32 µg/mL (≈ 99.9 µM) |  |  |  |  | 
3 | Cn1c(=O)c2nccn2c2/c(=C/c3ccncc3)c3ccccc3c21 | > 64 µg/mL | > 64 µg/mL | > 64 µg/mL | > 64 µg/mL | > 64 µg/mL | < 0.125 µg/mL | > 64 µg/mL | 0.25 µg/mL (≈ 0.766 µM) | 0.016 µg/mL (≈ 0.049 µM) |  |  | 
4 | Cn1cc(-c2ccc(NC(=O)Cc3ccc(Cl)cc3)cc2)n2ccnc2c1=O | > 32 µg/mL | > 32 µg/mL | > 32 µg/mL | > 32 µg/mL | 32 µg/mL (≈ 81.5 µM) | 1 µg/mL (≈ 2.55 µM) | > 32 µg/mL | 4 µg/mL (≈ 10.2 µM) | 0.125 µg/mL (≈ 0.318 µM) | 6.35 µM |  | 
5 | N[C@H]1CCN(c2cc3c(cc2F)n2cncc2c(=O)n3C2CC2)C1 | > 64 µg/mL | 16 µg/mL (≈ 48.9 µM) | 16 µg/mL (≈ 48.9 µM) | 1 µg/mL (≈ 3.05 µM) | 16 µg/mL (≈ 48.9 µM) | 1 µg/mL (≈ 3.05 µM) | 32 µg/mL (≈ 97.8 µM) |  |  |  | Active | Active
6 | O=c1c2nccn2c2cc(F)c(-c3ccccn3)cc2n1C1CC1 | > 64 µg/mL | > 64 µg/mL | > 64 µg/mL | > 64 µg/mL | > 64 µg/mL | 4 µg/mL (≈ 12.5 µM) | > 64 µg/mL |  |  |  |  | 
